In ChEMBL document CHEMBL3244157, “Synthesis and antiinflammatory evaluation of substituted isophthalonitriles, trimesonitriles, benzonitriles, and terephthalonitriles” (J Med Chem, 1978):

Columns and labels:
Rattus norvegicus [1] = test: Antiinflammatory activity in Long Evans rat assessed as reduction of carrageenan-induced pedal edema at 25 mg/kg, po administered 1 hr prior to carrageenan challenge measured after 3 hrs relative to control; assay type: functional; design: scale not given: the % may be the effect or the level left
[2] = Toxicity in mouse assessed as overt effects; assay type: organism-based; settings: in vivo
Rattus norvegicus [3] = test: Antiinflammatory activity in Long Evans rat assessed as reduction of carrageenan-induced pedal edema at 20 mg/kg, po administered 1 hr prior to carrageenan challenge measured after 3 hrs relative to control; assay type: functional; design: scale not given: the % may be the effect or the level left

Structure (SMILES)	Activity (Rattus norvegicus [1])	LD50 [2]	Activity (Rattus norvegicus [3])
Cc1c(Cl)cccc1Nc1c(C#N)c(Cl)c(C#N)c(Cl)c1C#N	8%	42 mg/kg	–
N#Cc1c(Cl)c(C#N)c(Cl)c(C#N)c1Cl	–	24 mg/kg	0%
